Assay results published in patent publication US12568968B2, “Herbicide combinations comprising glufosinate and epyrifencacil” (BASF SE, priority 2020, dated 2026).

Assays:
Experiment in all cases: Greenhouse post-emergence weed control, percent injury vs untreated control
Assay type in all cases: in vivo
[1] = system: Amaranthus Palmeri (AMAPA); conditions: 480 h, 20 DAT
Hordeum vulgare (HORVS) = conditions: 480 h, 20 DAT
Avena fatua (AVEFA) = conditions: 480 h, 20 DAT, 1% MSO
[2] = system: Abutilon theophrasti (ABUTH); conditions: 480 h, 20 DAT
[3] = system: Amaranthus tuberculatus (AMATU); conditions: 480 h, 20 DAT
[4] = 200 g ai/ha, read-out: Solo Glufosinate % activity
[5] = 50 g ai/ha, read-out: Solo Glufosinate % activity
[6] = 0.9 g ai/ha, read-out: Solo epyrifenacil % activity

SMILES	inhibition at 200 g/ha ([1]; 200 g ai/ha, Table 5, read-out: Solo Glufosinate % activity)	inhibition at 200 g/ha (Hordeum vulgare (HORVS); [4])	inhibition at 50 g/ha (Avena fatua (AVEFA); [5])	inhibition at 200 g/ha [2, 4]	inhibition at 50 g/ha [3, 5]	inhibition at 100 g/ha ([3]; 100 g ai/ha, read-out: Solo Glufosinate % activity)	inhibition at 200 g/ha [3, 4]	inhibition at 0.3 g/ha ([1]; 0.3 g ai/ha, read-out: Solo epyrifenacil % activity)	inhibition at 0.9 g/ha [1, 6]	inhibition at 0.9 g/ha (Hordeum vulgare (HORVS); [6])	inhibition at 0.9 g/ha (Avena fatua (AVEFA); [6])	inhibition at 0.1 g/ha ([2]; 0.1 g ai/ha, read-out: Solo epyrifenacil % activity)	inhibition at 0.9 g/ha ([3]; 0.9 g ai/ha, Table 2, read-out: Solo epyrifenacil % activity)
CP(=O)(O)CCC(N)C(=O)O (racemic) [Glufosinate, (2RS)-2-amino-4-[hydroxy(methyl)phosphinoyl]butyric acid]	75%	25%	10%	10%	10%	10%	70%	–	–	–	–	–	–
CCOC(=O)COc1ncccc1Oc1cc(-n2c(=O)cc(C(F)(F)F)n(C)c2=O)c(F)cc1Cl [epyrifenacil, Acetic acid, 2-[[3-[2-chloro-5-[3,6-dihydro-3-methyl-2,6-dioxo-4-(trifluoromethyl)-1(2H)-pyrimidinyl]-4-fluorophenoxy]-2-pyridinyl]oxy]-, ethyl ester]	–	–	–	–	–	–	–	15%	20%	10%	15%	25%	75%
